{
  "source": "ChEMBL document CHEMBL5465560",
  "about": "“Selectivity Literature for EUbOPEN Chemogenomic Library” (2024)",
  "key": {"[1]": {"molecular_target": "Bone morphogenetic protein receptor type-1A (Homo sapiens, UniProt P36894)", "sequence (P36894 whole entry)": "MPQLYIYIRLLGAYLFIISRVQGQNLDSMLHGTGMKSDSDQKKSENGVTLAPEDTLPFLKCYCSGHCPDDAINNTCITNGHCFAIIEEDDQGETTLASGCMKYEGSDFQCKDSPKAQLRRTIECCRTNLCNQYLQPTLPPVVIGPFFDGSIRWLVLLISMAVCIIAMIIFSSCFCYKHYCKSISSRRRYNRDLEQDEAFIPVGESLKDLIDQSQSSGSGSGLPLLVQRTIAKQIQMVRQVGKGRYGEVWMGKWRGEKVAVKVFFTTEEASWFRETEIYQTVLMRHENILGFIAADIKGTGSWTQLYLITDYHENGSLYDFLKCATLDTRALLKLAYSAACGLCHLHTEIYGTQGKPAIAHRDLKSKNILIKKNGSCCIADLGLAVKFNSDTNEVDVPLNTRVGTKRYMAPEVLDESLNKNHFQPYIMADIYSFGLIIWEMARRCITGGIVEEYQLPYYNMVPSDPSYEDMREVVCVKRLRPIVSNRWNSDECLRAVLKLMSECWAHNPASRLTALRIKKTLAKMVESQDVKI", "conditions": "at 10 µM"}, "[2]": {"molecular_target": "G protein-coupled receptor kinase 5 (Homo sapiens, UniProt P34947)", "sequence (P34947 whole entry, looked up)": "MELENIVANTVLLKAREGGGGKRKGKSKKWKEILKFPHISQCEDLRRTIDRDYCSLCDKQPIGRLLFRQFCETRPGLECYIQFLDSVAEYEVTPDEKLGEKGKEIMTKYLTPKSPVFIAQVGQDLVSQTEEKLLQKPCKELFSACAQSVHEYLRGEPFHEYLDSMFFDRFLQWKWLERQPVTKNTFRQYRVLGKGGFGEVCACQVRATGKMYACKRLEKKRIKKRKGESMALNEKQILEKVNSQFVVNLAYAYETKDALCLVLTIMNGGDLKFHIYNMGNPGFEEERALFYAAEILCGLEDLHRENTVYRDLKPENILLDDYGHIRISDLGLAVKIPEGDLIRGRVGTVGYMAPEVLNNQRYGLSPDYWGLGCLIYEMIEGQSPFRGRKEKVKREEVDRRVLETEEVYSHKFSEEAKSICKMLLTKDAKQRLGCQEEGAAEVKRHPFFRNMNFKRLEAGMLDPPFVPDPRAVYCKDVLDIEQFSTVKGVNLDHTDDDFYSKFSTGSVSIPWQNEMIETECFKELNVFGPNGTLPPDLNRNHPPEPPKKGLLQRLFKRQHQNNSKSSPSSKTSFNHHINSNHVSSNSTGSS", "assay": "Selectivity interaction (Kinase panel (DSF assay)) EUB0001558a GRK5"}, "[3]": {"molecular_target": "Cyclin-dependent kinase 16 (Homo sapiens) (UniProt Q00536)", "sequence (Q00536 whole entry)": "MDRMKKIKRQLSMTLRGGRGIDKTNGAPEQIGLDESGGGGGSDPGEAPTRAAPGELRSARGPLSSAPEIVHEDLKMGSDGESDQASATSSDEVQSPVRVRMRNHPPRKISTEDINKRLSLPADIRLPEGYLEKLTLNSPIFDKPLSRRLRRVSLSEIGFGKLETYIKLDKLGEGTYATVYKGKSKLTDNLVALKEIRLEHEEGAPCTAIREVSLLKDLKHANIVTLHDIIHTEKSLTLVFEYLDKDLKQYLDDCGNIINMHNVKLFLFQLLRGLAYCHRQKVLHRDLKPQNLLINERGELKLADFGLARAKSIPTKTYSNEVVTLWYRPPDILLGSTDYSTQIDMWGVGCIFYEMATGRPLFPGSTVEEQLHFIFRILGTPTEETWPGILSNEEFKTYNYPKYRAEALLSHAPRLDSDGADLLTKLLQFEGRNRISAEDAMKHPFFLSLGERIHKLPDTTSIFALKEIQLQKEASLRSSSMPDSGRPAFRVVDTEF", "assay": "Selectivity interaction (KinomeScan (DiscoverX)) EUB0000229b CDK16", "conditions": "at 10 µM"}, "[4]": {"molecular_target": "1-phosphatidylinositol 3-phosphate 5-kinase (Homo sapiens) (UniProt Q9Y2I7)", "sequence (Q9Y2I7 whole entry)": "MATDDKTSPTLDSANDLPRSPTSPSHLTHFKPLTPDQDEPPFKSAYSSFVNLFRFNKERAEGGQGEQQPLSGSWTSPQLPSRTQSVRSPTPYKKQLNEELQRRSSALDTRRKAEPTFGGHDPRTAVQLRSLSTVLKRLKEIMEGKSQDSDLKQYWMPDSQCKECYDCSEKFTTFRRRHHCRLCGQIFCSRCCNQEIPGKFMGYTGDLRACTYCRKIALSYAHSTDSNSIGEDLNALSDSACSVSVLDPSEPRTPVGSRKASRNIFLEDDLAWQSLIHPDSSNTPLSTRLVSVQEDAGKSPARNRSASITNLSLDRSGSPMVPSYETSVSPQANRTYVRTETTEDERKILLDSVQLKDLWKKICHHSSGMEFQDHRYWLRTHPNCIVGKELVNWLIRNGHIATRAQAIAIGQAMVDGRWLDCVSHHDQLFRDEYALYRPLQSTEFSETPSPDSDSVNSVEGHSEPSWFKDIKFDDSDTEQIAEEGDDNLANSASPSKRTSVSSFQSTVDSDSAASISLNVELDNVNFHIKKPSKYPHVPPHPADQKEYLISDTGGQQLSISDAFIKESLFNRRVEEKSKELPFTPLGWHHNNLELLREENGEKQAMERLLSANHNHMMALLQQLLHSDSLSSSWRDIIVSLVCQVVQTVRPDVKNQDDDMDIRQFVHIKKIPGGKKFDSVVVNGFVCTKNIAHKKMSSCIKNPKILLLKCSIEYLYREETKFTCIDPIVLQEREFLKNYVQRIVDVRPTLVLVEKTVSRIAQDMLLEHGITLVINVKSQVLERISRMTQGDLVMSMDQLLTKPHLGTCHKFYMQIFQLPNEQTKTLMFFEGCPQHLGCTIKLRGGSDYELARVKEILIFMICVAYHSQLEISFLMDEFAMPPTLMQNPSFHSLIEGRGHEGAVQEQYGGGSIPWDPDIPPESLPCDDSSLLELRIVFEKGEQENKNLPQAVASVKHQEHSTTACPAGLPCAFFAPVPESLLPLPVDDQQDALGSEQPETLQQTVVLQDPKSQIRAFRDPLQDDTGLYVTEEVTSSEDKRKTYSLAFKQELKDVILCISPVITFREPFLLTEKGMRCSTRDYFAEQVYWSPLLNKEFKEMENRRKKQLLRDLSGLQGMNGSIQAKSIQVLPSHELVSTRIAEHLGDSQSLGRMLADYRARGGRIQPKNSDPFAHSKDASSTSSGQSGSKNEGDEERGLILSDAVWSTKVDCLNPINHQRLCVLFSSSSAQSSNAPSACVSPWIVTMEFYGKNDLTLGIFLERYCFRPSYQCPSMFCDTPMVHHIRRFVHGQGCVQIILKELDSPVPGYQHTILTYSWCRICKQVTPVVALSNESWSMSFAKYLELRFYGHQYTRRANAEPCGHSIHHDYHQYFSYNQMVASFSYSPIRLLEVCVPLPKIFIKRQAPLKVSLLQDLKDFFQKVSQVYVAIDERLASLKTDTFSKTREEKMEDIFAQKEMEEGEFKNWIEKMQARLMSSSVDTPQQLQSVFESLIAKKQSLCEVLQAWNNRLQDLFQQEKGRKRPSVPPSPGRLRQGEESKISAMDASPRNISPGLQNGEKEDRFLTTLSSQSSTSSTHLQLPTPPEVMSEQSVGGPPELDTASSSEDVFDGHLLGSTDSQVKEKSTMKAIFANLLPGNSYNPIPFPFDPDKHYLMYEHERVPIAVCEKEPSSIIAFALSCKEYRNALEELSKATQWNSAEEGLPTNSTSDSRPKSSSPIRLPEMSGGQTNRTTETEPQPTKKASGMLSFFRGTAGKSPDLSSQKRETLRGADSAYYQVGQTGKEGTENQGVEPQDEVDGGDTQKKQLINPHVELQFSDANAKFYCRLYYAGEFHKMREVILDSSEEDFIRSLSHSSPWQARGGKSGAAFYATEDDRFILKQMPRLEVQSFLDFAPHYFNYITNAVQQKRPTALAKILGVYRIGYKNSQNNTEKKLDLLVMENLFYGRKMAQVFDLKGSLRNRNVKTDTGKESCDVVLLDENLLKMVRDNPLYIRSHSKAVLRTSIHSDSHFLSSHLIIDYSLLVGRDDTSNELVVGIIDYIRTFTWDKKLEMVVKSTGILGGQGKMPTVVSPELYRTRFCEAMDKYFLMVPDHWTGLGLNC", "assay": "Selectivity interaction (KinomeScan (DiscoverX)) EUB0001550a PIKFYVE", "conditions": "at 1 µM"}, "[5]": {"molecular_target": "T1, Serine/threonine-protein kinase 3 (Homo sapiens) (UniProt Q13188)", "T1 sequence (whole entry)": "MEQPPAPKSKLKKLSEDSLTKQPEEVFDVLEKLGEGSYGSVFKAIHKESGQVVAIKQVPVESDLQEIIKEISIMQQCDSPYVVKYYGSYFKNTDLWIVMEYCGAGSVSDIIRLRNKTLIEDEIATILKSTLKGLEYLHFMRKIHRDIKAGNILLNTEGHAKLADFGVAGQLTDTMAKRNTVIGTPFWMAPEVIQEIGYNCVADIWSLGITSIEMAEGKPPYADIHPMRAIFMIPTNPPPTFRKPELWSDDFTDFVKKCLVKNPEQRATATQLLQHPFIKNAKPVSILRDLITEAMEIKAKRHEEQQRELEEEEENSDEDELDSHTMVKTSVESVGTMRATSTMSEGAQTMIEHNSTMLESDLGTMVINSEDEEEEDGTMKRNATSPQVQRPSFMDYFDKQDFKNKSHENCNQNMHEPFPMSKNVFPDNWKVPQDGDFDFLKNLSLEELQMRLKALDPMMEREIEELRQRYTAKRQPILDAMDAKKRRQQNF", "assay": "Selectivity interaction (KinomeScan (DiscoverX)) EUB0000655a STK3", "conditions": "at 10 µM"}, "[6]": {"assay": "Selectivity interaction (Inhibition of ex vivo anti-IgM/IL-4 -induced proximal pAKT formation in rats) EUB0000877a PIK3CD"}, "[7]": {"molecular_target": "Tyrosine-protein kinase receptor Tie-1 (Homo sapiens) (UniProt P35590)", "conditions": "at 10 µM"}, "[8]": {"molecular_target": "Cyclin-dependent kinase 5/CDK5 activator 1 (Homo sapiens) (UniProt Q00535+Q15078)", "sequence (Q00535 whole entry)": "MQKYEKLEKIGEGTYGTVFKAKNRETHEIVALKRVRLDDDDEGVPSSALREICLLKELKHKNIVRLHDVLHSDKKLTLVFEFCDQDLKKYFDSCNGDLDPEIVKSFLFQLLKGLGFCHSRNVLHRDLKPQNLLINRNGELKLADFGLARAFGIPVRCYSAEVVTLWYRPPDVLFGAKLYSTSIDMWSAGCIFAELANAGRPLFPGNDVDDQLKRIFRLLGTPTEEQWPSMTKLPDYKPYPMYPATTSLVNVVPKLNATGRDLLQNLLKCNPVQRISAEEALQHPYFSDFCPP", "sequence (Q15078 99-307 partner limits assumed)": "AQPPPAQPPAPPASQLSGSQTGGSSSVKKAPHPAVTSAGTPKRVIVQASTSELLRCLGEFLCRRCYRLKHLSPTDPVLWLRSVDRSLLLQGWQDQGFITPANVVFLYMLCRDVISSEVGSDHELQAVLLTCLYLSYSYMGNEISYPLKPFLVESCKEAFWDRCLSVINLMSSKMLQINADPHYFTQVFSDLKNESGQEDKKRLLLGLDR", "assay": "Selectivity interaction (Kinase panel (Invitrogen)) EUB0000639a CDK5", "assay_type": "protein-complex assay", "conditions": "at 200 nM"}, "[9]": {"molecular_target": "5'-AMP-activated protein kinase catalytic subunit alpha-1 (Homo sapiens, UniProt Q13131)", "sequence (Q13131 whole entry, looked up)": "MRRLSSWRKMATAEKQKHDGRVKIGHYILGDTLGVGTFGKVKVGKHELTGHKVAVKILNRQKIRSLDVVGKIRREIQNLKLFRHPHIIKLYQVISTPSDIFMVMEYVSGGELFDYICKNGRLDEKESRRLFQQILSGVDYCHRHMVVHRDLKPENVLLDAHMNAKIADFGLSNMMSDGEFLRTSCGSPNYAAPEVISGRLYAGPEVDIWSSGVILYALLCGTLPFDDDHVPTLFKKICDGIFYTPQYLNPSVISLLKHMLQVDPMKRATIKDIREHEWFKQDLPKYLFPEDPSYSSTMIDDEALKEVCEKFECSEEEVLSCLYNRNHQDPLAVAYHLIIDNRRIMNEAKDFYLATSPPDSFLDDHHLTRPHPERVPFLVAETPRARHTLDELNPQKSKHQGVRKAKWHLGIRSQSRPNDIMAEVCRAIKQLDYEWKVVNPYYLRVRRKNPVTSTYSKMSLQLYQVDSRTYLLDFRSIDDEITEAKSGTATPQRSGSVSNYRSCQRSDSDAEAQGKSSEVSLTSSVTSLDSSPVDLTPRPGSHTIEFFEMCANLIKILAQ", "assay": "Selectivity interaction (ActivX KiNativ screen (kinase selectivity in THP-1 cell lysates)) EUB0000639a PRKAA1", "assay_type": "subcellular", "conditions": "lysate, at 1 µM"}, "[10]": {"molecular_target": "T2, Serine/threonine-protein kinase D3 (Homo sapiens) (UniProt O94806)", "T2 sequence (whole entry)": "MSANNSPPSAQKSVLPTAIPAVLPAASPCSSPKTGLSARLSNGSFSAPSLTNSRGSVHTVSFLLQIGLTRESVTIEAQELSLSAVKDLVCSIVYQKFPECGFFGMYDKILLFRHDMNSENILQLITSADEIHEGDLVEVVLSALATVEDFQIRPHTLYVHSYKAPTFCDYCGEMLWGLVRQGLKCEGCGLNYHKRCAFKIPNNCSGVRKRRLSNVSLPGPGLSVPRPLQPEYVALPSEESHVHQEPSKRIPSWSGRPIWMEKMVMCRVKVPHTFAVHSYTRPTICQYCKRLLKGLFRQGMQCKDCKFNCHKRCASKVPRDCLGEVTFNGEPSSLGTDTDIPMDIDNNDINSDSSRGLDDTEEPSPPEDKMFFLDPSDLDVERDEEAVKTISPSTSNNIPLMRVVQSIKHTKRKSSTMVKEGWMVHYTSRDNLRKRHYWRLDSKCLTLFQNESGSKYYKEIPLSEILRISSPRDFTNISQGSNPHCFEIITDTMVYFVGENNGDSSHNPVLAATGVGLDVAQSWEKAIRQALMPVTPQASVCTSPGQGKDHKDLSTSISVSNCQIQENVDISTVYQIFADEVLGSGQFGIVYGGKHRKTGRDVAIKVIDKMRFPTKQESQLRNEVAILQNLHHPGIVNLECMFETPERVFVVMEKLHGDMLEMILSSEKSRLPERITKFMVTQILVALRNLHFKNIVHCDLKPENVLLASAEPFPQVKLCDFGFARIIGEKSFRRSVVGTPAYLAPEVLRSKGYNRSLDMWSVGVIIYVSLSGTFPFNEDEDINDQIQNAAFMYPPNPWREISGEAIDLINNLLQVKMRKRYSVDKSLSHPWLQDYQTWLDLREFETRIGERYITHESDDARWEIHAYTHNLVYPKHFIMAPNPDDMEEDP", "assay": "Selectivity interaction (ActivX KiNativ screen (kinase selectivity in THP-1 cell lysates)) EUB0000639a PRKD3", "assay_type": "subcellular", "conditions": "lysate, at 1 µM"}, "[11]": {"molecular_target": "T3, Ephrin type-A receptor 1 (Homo sapiens) (UniProt P21709)", "T3 sequence (whole entry)": "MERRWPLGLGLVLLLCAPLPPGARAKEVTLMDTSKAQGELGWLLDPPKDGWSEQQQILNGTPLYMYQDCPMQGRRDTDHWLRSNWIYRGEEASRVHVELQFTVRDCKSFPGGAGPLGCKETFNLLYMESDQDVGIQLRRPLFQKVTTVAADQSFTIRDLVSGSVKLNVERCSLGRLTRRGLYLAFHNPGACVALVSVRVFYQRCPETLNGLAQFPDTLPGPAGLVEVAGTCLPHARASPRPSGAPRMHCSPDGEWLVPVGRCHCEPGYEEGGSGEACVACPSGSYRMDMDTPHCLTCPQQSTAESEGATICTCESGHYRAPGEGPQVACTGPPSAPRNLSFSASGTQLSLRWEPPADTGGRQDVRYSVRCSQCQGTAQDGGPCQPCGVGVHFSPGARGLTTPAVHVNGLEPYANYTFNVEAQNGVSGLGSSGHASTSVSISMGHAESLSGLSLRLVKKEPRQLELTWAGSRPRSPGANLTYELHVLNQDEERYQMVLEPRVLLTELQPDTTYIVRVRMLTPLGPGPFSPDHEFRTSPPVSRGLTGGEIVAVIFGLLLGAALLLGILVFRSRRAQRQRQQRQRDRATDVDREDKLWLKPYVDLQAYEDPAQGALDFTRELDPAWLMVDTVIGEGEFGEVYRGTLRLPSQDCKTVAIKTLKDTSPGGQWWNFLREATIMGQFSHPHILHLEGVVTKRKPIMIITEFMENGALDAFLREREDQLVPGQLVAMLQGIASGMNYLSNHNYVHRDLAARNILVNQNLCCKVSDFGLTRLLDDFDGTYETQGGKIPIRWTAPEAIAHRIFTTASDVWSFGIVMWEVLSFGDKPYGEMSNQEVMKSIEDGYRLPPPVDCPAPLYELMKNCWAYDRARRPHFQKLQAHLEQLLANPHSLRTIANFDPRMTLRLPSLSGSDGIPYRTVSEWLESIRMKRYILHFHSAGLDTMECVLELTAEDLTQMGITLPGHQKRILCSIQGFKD", "assay": "Selectivity interaction (KinomeScan (DiscoverX)) EUB0001619a EPHA1", "conditions": "at 1 µM"}},
  "data": [
    {"compound": "CCN(CC)CCCCNc1ncc2cc(-c3cc(OC)cc(OC)c3)c(NC(=O)NC(C)(C)C)nc2n1", "values": [
      {"measurement": "% of control", "setting": "[1]", "result": 100, "unit": "%"}
    ]},
    {"compound": "CC(C)(O)[C@H](F)CN1Cc2cc(NC(=O)c3cnn4cccnc34)c(N3CCOCC3)cc2C1=O", "values": [
      {"measurement": "dTM", "setting": "[2]", "result": 0.2, "unit": "K"}
    ]},
    {"compound": "COc1cc(N(C)c2ccnc3ccc(C(F)(F)F)cc23)cc(OC)c1OC", "values": [
      {"measurement": "% binding", "setting": "[3]", "result": 85, "unit": "%"}
    ]},
    {"compound": "CN(C)CC#Cc1ccc2[nH]c3c(c2c1)-c1nc(N)ncc1CCC3", "values": [
      {"measurement": "% of control", "setting": "[4]", "result": 0.1, "unit": "%"}
    ]},
    {"compound": "CN(C)CCOc1ccc(-c2nc(-c3ccncc3)c(-c3ccc4c(c3)CC/C4=N\\O)[nH]2)cc1", "values": [
      {"measurement": "% of control", "setting": "[5]", "result": 88, "unit": "%"}
    ]},
    {"compound": "CCC(=O)N1CC[C@H](Nc2ncnc3c2CN(c2cnc(OC)c(C(F)(F)F)c2)CC3)C1", "note": "[LENIOLISIB]", "values": [
      {"measurement": "EC50", "setting": "[6]", "result": 83, "unit": "nM"}
    ]},
    {"compound": "Cc1cc([C@@H](C)Nc2ccccc2C(=O)O)c2nc(N3CCOCC3)cc(=O)n2c1", "note": "[AZD-6482]", "values": [
      {"measurement": "% of control", "setting": "[7]", "result": 100, "unit": "%"}
    ]},
    {"compound": "CC[C@@H]1[C@H](F)C(=O)N[C@@H]1COc1nccc2cc(C(N)=O)c(OC)cc12", "note": "[ZIMLOVISERTIB]", "values": [
      {"measurement": "% of inhibition", "setting": "[8]", "result": 2.19, "unit": "%"},
      {"measurement": "% of inhibition", "setting": "[9]", "result": -4.6, "unit": "%"},
      {"measurement": "% of inhibition", "setting": "[10]", "result": 1.2, "unit": "%"}
    ]},
    {"compound": "N#Cc1cccc(-c2c[nH]c3ncnc(N4CCOCC4)c23)c1", "values": [
      {"measurement": "% of control", "setting": "[11]", "result": 100, "unit": "%"}
    ]}
  ]
}
